Laboratory results reported in article PMC4544630, “Contribution of C-glucosidic ellagitannins to Lythrum salicaria L. influence on pro-inflammatory functions of human neutrophils” (Journal of Natural Medicines, 2014).

Key:
[1] = system: ROS; assay: ROS release from PMA-stimulated neutrophils, lucigenin chemiluminescence; assay type: cell-based, human; settings: PMA + lucygenin, % of stimulated control
Source text: (§1) Peripheral venous blood was taken from healthy human donors (20–35 years old) in the Warsaw Blood Donation Centre. […] The study conformed to the principles of the Declaration of Helsinki. Neutrophils were isolated using a standard method of dextran sedimentation prior to hypotonic lysis of erythrocytes and to centrifugation in a Ficoll Hypaque gradient. The purity of neutrophil preparations was >97 %, and viability measured by trypan blue exclusion was >98 %. Neutrophils were then resuspended in appropriate medium to perform the selected assay.
(§2) Generation of oxidants by f-MLP or PMA-stimulated neutrophils was measured using luminol- or lucigenin-dependent chemiluminescence tests. 70 μL of cell suspension (2 × 10^5/mL) in HBSS was incubated with 50 μL of compound or extract solution (final concentrations of 1, 5 and 20 μM or μg/mL) together with 50 μL of luminol (100 μM) or lucigenin (200 μM) solution. ROS production was initiated by the addition of 30 μL of f-MLP (0.1 μg/mL) or PMA (1 μg/mL). Changes in chemiluminescence at 37 °C were measured immediately for 45 min at intervals of 2 min in a microplate reader (Biotek). Ascorbic acid was used as a positive control.

[2] = system: MMP-9; assay: MMP-9 production by LPS-stimulated neutrophils (ELISA); assay type: cell-based, human; settings: LPS 100 ng/mL, 24 h, % of stimulated control
Source text: as §1
(§3) Neutrophils (2 × 10^5/mL) were cultured in 24-well plates in RPMI 1640 medium with 10 % FBS, 10 mM HEPES, and 2 mM L-glutamine in the absence or presence of LPS (100 ng/mL) for 24 h at 37 °C with 5 % CO2 in the absence or presence of extract at concentrations of 1, 5 and 20 μg/mL, and compounds at concentrations of 1, 5 and 20 μM were added to 1 mL of cell suspension 1 h before the stimuli. After 24 h, the neutrophils were harvested and centrifuged (2000 RPM; 10 min; 4 °C). The amount of IL-8 or MMP-9 released into cell supernatants was measured by enzyme-linked immunosorbent assay (ELISA) following the manufacturer’s instructions (R&D Systems, Minneapolis, MN, USA). PBS was used as a non-stimulated control. Curcumin was used as a positive control, according to Aggarwal and Harikumar and Antoine et al..

[3] = target: T1, bovine testis hyaluronidase (Bos taurus, UniProt Q2YDK3); assay: Hyaluronidase activity, USP turbidimetric method modified; assay type: biochemical; settings: for Hyaluronidase activity Mean(%): % of 100% active enzyme control
T1 construct: purchased Sigma–Aldrich GmbH (Steinheim, Germany); host or cells: bovine testis
T1 sequence (Q2YDK3 36-553): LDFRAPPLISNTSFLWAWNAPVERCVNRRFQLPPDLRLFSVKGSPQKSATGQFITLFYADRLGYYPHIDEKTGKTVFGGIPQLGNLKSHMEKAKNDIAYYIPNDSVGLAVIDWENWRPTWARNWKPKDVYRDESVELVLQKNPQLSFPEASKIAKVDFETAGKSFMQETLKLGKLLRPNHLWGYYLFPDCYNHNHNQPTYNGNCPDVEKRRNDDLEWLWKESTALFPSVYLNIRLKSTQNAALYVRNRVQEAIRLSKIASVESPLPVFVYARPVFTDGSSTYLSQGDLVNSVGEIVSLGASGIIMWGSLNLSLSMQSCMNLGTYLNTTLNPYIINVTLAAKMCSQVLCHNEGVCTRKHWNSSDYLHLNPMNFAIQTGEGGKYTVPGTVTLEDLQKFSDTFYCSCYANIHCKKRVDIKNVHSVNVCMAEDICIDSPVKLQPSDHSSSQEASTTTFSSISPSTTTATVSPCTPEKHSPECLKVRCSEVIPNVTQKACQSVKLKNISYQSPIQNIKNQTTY
Source text: The […] flowering herb was collected from its natural habitat in Umer in the Świętokrzyskie region (Poland) in July 2011. Its identity was confirmed anatomically and morphologically based on its pharmacopoeial monograph in the Department of Pharmacognosy and Molecular Basis of Phytotherapy, Medical University of Warsaw, where the voucher specimen UMER2011 is deposited. […] […]), castalagin ([…] (SB) and […]. 1, 2) from […] performed according to Piwowarski and Kiss. […] Isolated ellagitannins were of >95 % purity (determined by the HPLC-DAD-CAD method). […] Gallic acid (>96 % purity) was purchased from ChromaDex (Santa Ana, USA). Propidium iodide was purchased from BD Biosciences (San Diego, CA, USA). All substances used were of >95 % purity. Phosphate-buffered saline (PBS) was purchased from Gibco (Carlsbad, CA, USA). The influence of extract and ellagitannins on hyaluronidase activity was measured using the USP turbidimetric method modified by Piwowarski et al. […] Heparin was used as a positive control.

[4] = system: MPO; assay: MPO release from cytochalasin A/f-MLP-stimulated neutrophils (TMB substrate); assay type: cell-based, human; settings: for MPO release Mean(%): cytochalasin A/f-MLP, % of stimulated control
Source text: Peripheral venous blood was taken from healthy human donors (20-35 years old) in the Warsaw Blood Donation Centre. […] The study conformed to the principles of the Declaration of Helsinki. Neutrophils were isolated using a standard method of dextran sedimentation prior to hypotonic lysis of erythrocytes and to centrifugation in a Ficoll Hypaque gradient. The purity of neutrophil preparations was >97 %, and viability measured by trypan blue exclusion was >98 %. Neutrophils were then resuspended in appropriate medium to perform the selected assay. Neutrophil MPO release was determined using TMB as a substrate. […] After centrifugation (2000 rpm; 10 min; 4 °C), 100 μL of supernatant was incubated with 50 μL of the TMB liquid substrate system. The reaction was terminated after 20 min by the addition of 2 M hydrochloric acid. The absorbance was measured at […] using a microplate reader (BioTek). Gallic acid was used as a positive control, according to Kroes et al..

[5] = system: elastase; assay: Elastase release from cytochalasin A/f-MLP-stimulated neutrophils (SAAVNA substrate); assay type: cell-based, human; settings: for Elastase release Mean(%): % of stimulated control
Source text: as §1
Neutrophil elastase release was determined using SAAVNA as a substrate, and […] was measured spectrophotometrically. 100 μL of cell suspension (5 × 10^5/mL) in HBSS was preincubated with 50 μL of compound or extract solution (final concentrations of 1, 5 and 20 μM or μg/mL) for 15 min at 37 °C and then stimulated with 50 μL of cytochalasin A (5 μg/mL) and f-MLP (0.1 μg/mL) for 15 min. The neutrophils were centrifuged (2000 rpm; 10 min; 4 °C). After the addition of 50 μL of SAAVNA solution (1.6 mg/mL) to 100 μL of supernatant, the extent of […] was measured spectrophotometrically for 1 h at intervals of 20 min, at 412 nm using a microplate reader (BioTek). According to Kanashiro et al., quercetin was used as a positive control.

[6] = system: IL-8; assay: IL-8 production by LPS-stimulated neutrophils (ELISA); assay type: cell-based, human; settings: LPS 100 ng/mL, 24 h, % of stimulated control
Source text: as §1, §3

[7] = system: ROS; assay: ROS release from f-MLP-stimulated neutrophils, luminol chemiluminescence; assay type: cell-based, human; settings: % of stimulated control
Source text: as §1, §2

Molecule | ROS release Mean(%) ([1]; 1 μM) | ROS release Mean(%) ([1]; 5 μM) | ROS release Mean(%) ([1]; 20 μM) | MMP-9 production Mean (%) ([2]; 1 μM) | MMP-9 production Mean (%) ([2]; 5 μM) | MMP-9 production Mean (%) ([2]; 20 μM) | MPO release Mean(%) ([4]; 1 μM) | MPO release Mean(%) ([4]; 5 μM) | MPO release Mean(%) ([4]; 20 μM) | Elastase release Mean(%) ([5]; 1 μM) | Elastase release Mean(%) ([5]; 5 μM) | Elastase release Mean(%) ([5]; 20 μM) | IL-8 production Mean (%) ([6]; 1 μM) | IL-8 production Mean (%) ([6]; 5 μM) | IL-8 production Mean (%) ([6]; 20 μM) | ROS release Mean(%) ([7]; 1 μM) | ROS release Mean(%) ([7]; 5 μM) | ROS release Mean(%) ([7]; 20 μM) | also measured
O=C(OC1COC(=O)c2cc(O)c(O)c(O)c2-c2c(cc(O)c(O)c2O)C(=O)OC1C1OC(=O)c2cc(O)c(O)c(O)c2-c2c(O)c(O)c(O)c3c2C(=O)OC1C3O)c1cc(O)c(O)c(O)c1Oc1cc2c(c(O)c1O)-c1c(cc(O)c(O)c1O)C(=O)OCC1OC(=O)c3cc(O)c(O)c(O)c3-c3c(O)c(O)c(O)c4c3C(=O)OC(C1OC2=O)C1OC(=O)c2c-4c(O)c(O)c(O)c2C1O (stereo not shown) [SA, salicarinin A] | 66,68% | 44,80% | 14,59% | 100,80% | 92,00% | 96,35% | 61,96% | 31,79% | 1,52% | 80,47% | 63,45% | 42,22% | 89,82% | 81,38% | 79,80% | 54,14% | 27,84% | 19,49% | IC50 [3]: 1600 ± 100 nM; Hyaluronidase activity Mean(%) ([3]; 1 μM): 75,50%; Hyaluronidase activity Mean(%) ([3]; 2 μM): 35,96%; Hyaluronidase activity Mean(%) ([3]; 5 μM): 0,50%; Hyaluronidase activity Mean(%) ([3]; 20 μM): 1,13%
O=C1OCC2OC(=O)c3cc(O)c(O)c(O)c3-c3c(O)c(O)c(O)c4c3C(=O)OC(C2OC(=O)c2cc(O)c(O)c(O)c2-c2c1cc(O)c(O)c2O)C1OC(=O)c2c-4c(O)c(O)c(O)c2C1O (stereo not shown) [V, vescalagin] | 66,84% | 50,90% | 28,93% | 85,96% | 99,57% | 89,91% | 81,67% | 65,70% | 41,17% | 102,25% | 104,61% | 102,89% | 98,64% | 80,63% | 71,68% | 63,47% | 46,61% | 30,13% | IC50 [3]: 3100 ± 200 nM; Hyaluronidase activity Mean(%) ([3]; 1 μM): 88,10%; Hyaluronidase activity Mean(%) ([3]; 2 μM): 68,10%; Hyaluronidase activity Mean(%) ([3]; 5 μM): 18,39%; Hyaluronidase activity Mean(%) ([3]; 20 μM): 5,10%; activity on MPO release ([4]; all tested concentrations (1, 5, 20 μM)): expressed inhibitory activity at all tested concentrations; activity on elastase release ([5]; tested concentrations (1, 5, 20 μM)): completely inactive
Heparin [reference compound] | – | – | – | – | – | – | – | – | – | – | – | – | – | – | – | – | – | – | Hyaluronidase activity Mean(%) ([3]; 1 μg/mL): 100,00%; Hyaluronidase activity Mean(%) ([3]; 2 μg/mL): 96,35%; Hyaluronidase activity Mean(%) ([3]; 5 μg/mL): 89,89%; Hyaluronidase activity Mean(%) ([3]; 20 μg/mL): 82,73%
O=C1O[C@H]([C@@H](O)CO)C(O)=C1O [VitC, ascorbic acid, reference compound] | 93,99% | 94,53% | 85,15% | – | – | – | – | – | – | – | – | – | – | – | – | 91,10% | 79,14% | 61,91% | –
O=C(O)c1cc(O)c(O)c(O)c1 [gal, Gallic acid, reference compound] | – | – | – | – | – | – | 85,62% | 58,97% | 18,88% | – | – | – | – | – | – | – | – | – | –
O=c1c(O)c(-c2ccc(O)c(O)c2)oc2cc(O)cc(O)c12 [Q, quercetin, reference compound] | – | – | – | – | – | – | – | – | – | 104,09% | 78,40% | 55,22% | – | – | – | – | – | – | –
COc1cc(/C=C/C(=O)CC(=O)/C=C/c2ccc(O)c(OC)c2)ccc1O [Cur, curcumin, reference compound] | – | – | – | 100,14% | 64,26% | 39,26% | – | – | – | – | – | – | 112,66% | 58,75% | 26,70% | – | – | – | –
